One test concerns the target T1, human recombinant HDAC6 (Homo sapiens, UniProt Q9UBN7).
T1 construct: purchased Calbiochem Inc. 382180
T1 sequence (Q9UBN7 1-1215): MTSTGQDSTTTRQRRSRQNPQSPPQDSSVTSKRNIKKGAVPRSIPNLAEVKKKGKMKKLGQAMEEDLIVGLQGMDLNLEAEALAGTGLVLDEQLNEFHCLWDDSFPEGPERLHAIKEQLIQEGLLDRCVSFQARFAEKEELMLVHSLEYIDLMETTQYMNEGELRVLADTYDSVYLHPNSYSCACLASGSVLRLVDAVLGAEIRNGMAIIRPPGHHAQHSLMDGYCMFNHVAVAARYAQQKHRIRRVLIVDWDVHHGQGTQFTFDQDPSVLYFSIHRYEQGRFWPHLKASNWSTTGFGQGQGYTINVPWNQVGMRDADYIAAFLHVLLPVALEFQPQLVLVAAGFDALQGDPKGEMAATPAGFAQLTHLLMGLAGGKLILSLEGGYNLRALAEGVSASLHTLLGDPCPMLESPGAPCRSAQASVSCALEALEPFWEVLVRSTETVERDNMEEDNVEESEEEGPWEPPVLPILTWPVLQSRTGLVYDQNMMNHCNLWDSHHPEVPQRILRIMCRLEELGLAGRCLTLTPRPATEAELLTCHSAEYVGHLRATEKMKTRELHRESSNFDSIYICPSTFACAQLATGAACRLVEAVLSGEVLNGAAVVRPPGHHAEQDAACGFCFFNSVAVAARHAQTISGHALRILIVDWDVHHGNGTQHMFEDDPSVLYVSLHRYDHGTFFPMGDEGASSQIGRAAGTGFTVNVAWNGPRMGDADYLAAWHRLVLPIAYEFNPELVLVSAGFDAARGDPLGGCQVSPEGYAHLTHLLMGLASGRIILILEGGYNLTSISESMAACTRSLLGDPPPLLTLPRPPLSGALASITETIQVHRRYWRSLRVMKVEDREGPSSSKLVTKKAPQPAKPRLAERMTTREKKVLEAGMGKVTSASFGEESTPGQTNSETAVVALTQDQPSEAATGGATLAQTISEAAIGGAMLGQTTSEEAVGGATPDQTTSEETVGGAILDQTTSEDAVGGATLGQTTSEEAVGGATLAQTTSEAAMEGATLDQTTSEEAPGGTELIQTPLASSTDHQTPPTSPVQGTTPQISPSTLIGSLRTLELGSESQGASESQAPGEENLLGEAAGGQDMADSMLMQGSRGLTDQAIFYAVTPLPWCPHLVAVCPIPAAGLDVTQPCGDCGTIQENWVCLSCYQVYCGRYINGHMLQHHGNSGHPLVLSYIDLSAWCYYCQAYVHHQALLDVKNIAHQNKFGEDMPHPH
The test is described as follows: In vitro HDAC enzyme activity inhibition assay, HDAC6 (HDAC Fluorimetric Drug Discovery Kit). The format is biochemical. The conditions noted are these: for HDAC6 Selectivity (fold): HDAC6 versus HDAC1; for IC50: human recombinant HDAC6, same protocol as the HDAC1 test. Put shortly: (§1)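 Fluorimetric deacetylase kit; 0.3 μg human recombinant enzyme with 10 μM Fluor de Lys-SIRT1 substrate, 60 min at 30° C, then developer 30 min. Fluorescence read at Ex 360/Em 460; IC50 from 5-fold compound dilutions. HDAC1 and HDAC6 run by the same protocol.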

For a further test, the target named is T2, human recombinant HDAC1 (Homo sapiens, UniProt Q13547).
T2 construct: purchased Enzo Life Sciences, Inc. BML-SE456
The test is described as follows: In vitro HDAC enzyme activity inhibition assay, HDAC1 (HDAC Fluorimetric Drug Discovery Kit). Format: biochemical. The conditions noted are these: human recombinant HDAC1, Fluor de Lys-SIRT1 substrate 10 μM, 30° C. for 60 minutes. Put shortly:
as §1

SMILES strings stand for the structures. Where only a bound is given, the exact number is not on record here.

T2 sequence (Q13547 whole entry): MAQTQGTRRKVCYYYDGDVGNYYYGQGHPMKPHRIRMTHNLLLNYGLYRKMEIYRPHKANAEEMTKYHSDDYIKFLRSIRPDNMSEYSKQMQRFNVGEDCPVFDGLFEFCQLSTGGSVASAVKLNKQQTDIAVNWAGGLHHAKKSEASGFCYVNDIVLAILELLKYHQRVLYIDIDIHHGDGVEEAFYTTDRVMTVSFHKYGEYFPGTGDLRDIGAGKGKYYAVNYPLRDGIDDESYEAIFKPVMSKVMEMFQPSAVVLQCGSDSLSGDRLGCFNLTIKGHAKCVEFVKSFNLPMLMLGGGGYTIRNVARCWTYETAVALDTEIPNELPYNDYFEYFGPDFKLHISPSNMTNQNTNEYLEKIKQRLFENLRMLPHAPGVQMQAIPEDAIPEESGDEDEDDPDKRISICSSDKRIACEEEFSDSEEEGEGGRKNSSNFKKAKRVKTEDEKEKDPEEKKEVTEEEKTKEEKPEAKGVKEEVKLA

Consider `O=C(N1CCN(C2CCOCC2)CC1)N(Cc1cn2ccc(-c3nnc(C(F)F)o3)cc2n1)c1ccccc1` [Compound 4038, N-((7-(5-(difluoromethyl)-1,3,4-oxadiazol-2-yl)imidazo[1,2-a]pyridin-2-yl)methyl)-N-phenyl-4-(tetrahydro-2H-pyran-4-yl)piperazine-1-carboxamide], for which, at human recombinant HDAC6, the “HDAC6 Selectivity (fold)” value is listed as 382 fold and the IC50 amounted to 131 nM. Further, the half-maximal inhibitory concentration (IC50) on human recombinant HDAC1 is above 50000 nM.
In the same order, the values of `COC(=O)N1CCN(C(=O)N(Cc2cn3ccc(-c4nnc(C(F)F)o4)cc3n2)c2ccccc2)CC1` [Compound 4046, methyl 4-(((7-(5-(difluoromethyl)-1,3,4-oxadiazol-2-yl)imidazo[1,2-a]pyridin-2-yl)methyl)(phenyl)carbamoyl)piperazine-1-carboxylate] are 400 fold, 125 nM and above 50000 nM.
`CCN1CCC(C(=O)N(Cc2cn3ccc(-c4nnc(C(F)F)o4)cc3n2)c2ccccc2)CC1` [Compound 4115, N-((7-(5-(difluoromethyl)-1,3,4-oxadiazol-2-yl)imidazo[1,2-a]pyridin-2-yl)methyl)-1-ethyl-N-phenylpiperidine-4-carboxamide]: on human recombinant HDAC6, the “HDAC6 Selectivity (fold)” value is listed as 141 fold. Moreover, the IC50 on human recombinant HDAC6 was 354 nM; at human recombinant HDAC1, above 50000 nM.
In the same order, the values of `O=C(C1CCC1)N1CC(C(=O)N(Cc2cn3ccc(-c4nnc(C(F)F)o4)cc3n2)c2ccccc2)C1` [Compound 4170, 1-(cyclobutanecarbonyl)-N-((7-(5-(difluoromethyl)-1,3,4-oxadiazol-2-yl)imidazo[1,2-a]pyridine-2-yl)methyl)-N-phenylazetidine-3-carboxamide] are 144 fold, 347 nM and above 50000 nM.
In the same order, the values of `CC(CO)N1CC(C(=O)N(Cc2cn3ccc(-c4nnc(C(F)F)o4)cc3n2)c2cccc(F)c2)C1` (stereo not drawn) [Compound 4191, N-((7-(5-(difluoromethyl)-1,3,4-oxadiazol-2-yl)imidazo[1,2-a]pyridin-2-yl)methyl)-N-(3-fluorophenyl)-1-(1-hydroxypropan-2-yl) azetidine-3-carboxamide] are 373 fold, 134 nM and above 50000 nM.
In the same order, the values of `O=C(N1CCN(C2COC2)CC1)N(Cc1cn2ccc(-c3nnc(C(F)F)o3)cc2n1)c1cccc(F)c1` [Compound 4088, N-((7-(5-(difluoromethyl)-1,3,4-oxadiazol-2-yl)imidazo[1,2-a]pyridin-2-yl)methyl)-N-(3-fluorophenyl)-4-(oxetan-3-yl)piperazine-1-carboxamide] are 156 fold, 320 nM and above 50000 nM.
For the molecule `O=C(C1CCN(c2ncccn2)CC1)N(Cc1cn2ccc(-c3nnc(C(F)F)o3)cc2n1)c1cccc(F)c1` [Compound 4157, N-((7-(5-(difluoromethyl)-1,3,4-oxadiazol-2-yl)imidazo[1,2-a]pyridin-2-yl)methyl)-N-(3-fluorophenyl)-1-(pyrimidin-2-yl)piperidine-4-carboxamide], on human recombinant HDAC6, the “HDAC6 Selectivity (fold)” value came out at 306 fold and the IC50 was determined as 163 nM. Further, on human recombinant HDAC1, the IC50 was above 50000 nM.
In the same order, the values of `O=C(C1CCN(C2CC3(COC3)C2)CC1)N(Cc1cn2ccc(-c3nnc(C(F)F)o3)cc2n1)c1cccc(F)c1` [Compound 4619, N-((7-(5-(difluoromethyl)-1,3,4-oxadiazol-2-yl)imidazo[1,2-a]pyridin-2-yl)methyl)-N-(3-fluorophenyl)-1-(2-oxaspiro[3.3]heptan-6-yl)piperidine-4-carboxamide] are 253 fold, 197 nM and above 50000 nM.

For orientation: IC50 means the concentration at which inhibition is half-maximal.

The record behind these values is patent publication US12522601B2, “1,3,4-oxadiazole derivative compounds as histone deacetylase 6 inhibitor, and the pharmaceutical composition comprising the same” (CHONG KUN DANG PHARMACEUTICAL CORP., priority 2020, dated 2026).
